In patent US20140128352A1, “COMPOUNDS AND METHODS FOR MODULATING MITOCHONDRIAL METABOLISM AND REACTIVE OXYGEN SPECIES PRODUCTION” (Buck Institute for Research on Aging, priority 2012, published 2014):
Where two headings read alike, the source gives them in different places.

Key:
[1] = tested on: mitochondrial membrane potential (ΔΨm); experiment: Membrane potential (ΔΨm) counterscreen with TMRM; settings: malate, nigericin
[2] = biological target: T1, outer ubiquinone binding site of complex III (IIIQO) (Rattus norvegicus, UniProt P00159+P20788); experiment: High-throughput screen: ROS production from outer ubiquinone binding site of complex III (IIIQO); type: biochemical
T1 construct: freshly isolated muscle mitochondria were assayed; from tissue; host or cells: rat skeletal muscle mitochondria (Wistar, Harlan Laboratories)

[3] = biological target: T2, succinate dehydrogenase/complex II (SDH) (Rattus norvegicus, UniProt P21913+Q641Z9+Q6PCT8+Q920L2); experiment: High-throughput screen: ROS production from succinate dehydrogenase/complex II (SDH); type: biochemical; settings: for inhibition at 2.5 µM / SDH: percent change in ROS from DMSO controls; for % Reduction in ROS Production (SDH): Table 5, 15 μM palmitoyl carnitine, 2.5 μM antimycin A, 2 μM myxothiazol, compounds 2.5 μM, percent change from DMSO
T2 construct: freshly isolated muscle mitochondria were assayed; from tissue; host or cells: rat skeletal muscle mitochondria (Wistar, Harlan Laboratories)

[4] = tested on: ubiquinone binding site of complex I (IQ); experiment: High-throughput screen: ROS production from ubiquinone binding site of complex I (IQ), isolated skeletal muscle mitochondria; type: biochemical, rat; settings: for IQ: percent change in ROS from DMSO controls; for % Reduction in ROS production (IQ): Table 2, 5 mM succinate, compounds 2.5 μM, percent change from DMSO, positive control −100%
Protocol: (§1) Skeletal muscle mitochondria were isolated from 5-8 week old female Wistar rats (Harlan Laboratories). Minced muscle was homogenized in buffer containing bacterial protease Type VIII prior to differential centrifugation to separate mitochondria from other tissue components. Unless otherwise stated, freshly isolated muscle mitochondria were assayed in buffer containing 120 mM KCl, 5 mM HEPES, 1 mM EGTA, 0.3% (w/v) bovine serum albumin. Where indicated, CaCl2 was added to yield a final free concentration of 250 nM calcium at pH 7.0 at 37° C.
(§2) Compounds (10 mM in DMSO) were randomly selected from a library of 24,000 compounds obtained from ChemBridge and curated by the lab of Robert Hughes at the Buck Institute. Master screening plates were prepared using a Biomek FX liquid handling workstation (Beckman) to transfer 1 μL of each compound into individual wells on 96-well storage plates (80 compounds per plate). Master plates were sealed with foil and stored at −80° C. Just prior to use, plates were brought to room temperature and diluted 300-fold with standard buffer (13.3X=33.3 μM). To monitor the performance of each assay throughout screening and to provide intra-plate normalization reference points, DMSO negative controls and known mitochondrial inhibitor positive controls were included on each Master compound plate.
(§3) Total amounts of superoxide and H2O2 production were determined fluorometrically as H2O2, without distinguishing between them, in the presence of exogenous superoxide dismutase (25 units/mL final), horseradish peroxidase (1 unit/mL final), and Amplex UltraRed (25 μM final) as described (Affourtit, C. et al. (2012) Measurement of proton leak and electron leak in isolated mitochondria. Methods Mol. Biol. 810: 165-82). Just prior to use, a bulk 3.3X solution was made in standard buffer and distributed into a 2 mL deep well 96-well transfer plate.
To assess the effects of a compound on ROS production from the ubiquinone binding site of complex I (IQ), Start Solution containing 5 mM succinate was distributed into standard 96-well transfer plates. A Biomek FX workstation was programmed to dispense solutions into black 96-well assay plates. Solutions were dispensed to all assay plates in the following order: ROS Detection solution described in Example 3, Mitochondria solution described in Example 1 to a final concentration of 0.1 mg/ml, and Compound dilutions described in Example 2. Duplicate assay plates were made and each was initiated by the addition of 3.3X Start solution containing 5 mM succinate. Plates were incubated in the dark at room temperature for 30-40 minutes before acquiring endpoint fluorescence using a Victor 3V plate reader (Perkin Elmer) equipped with 550/590 nm excitation/emission filters.
The fluorescence values in each well were scaled as the percent change from the intra-plate DMSO controls with the appropriate inhibitor positive controls defined as −100%. Following initial scaling, intra-plate normalized values were subjected to Tukey's two-way median polish to remove row and column dependent positional effects (Malo et al, 2006).

[5] = biological target: T3, flavin binding site of complex I (IF) (Rattus norvegicus, UniProt Q5XIH3); experiment: High-throughput screen: ROS production from flavin binding site of complex I (IF); type: biochemical
T3 construct: freshly isolated muscle mitochondria were assayed; from tissue; host or cells: rat skeletal muscle mitochondria (Wistar, Harlan Laboratories)
Protocol: as §1
Master screening plates were prepared using a Biomek FX liquid handling workstation (Beckman) to transfer 1 μL of each compound into individual wells on 96-well storage plates (80 compounds per plate). […] Just prior to use, plates were brought to room temperature and diluted 300-fold with standard buffer (13.3X=33.3 μM). To monitor the performance of each assay throughout screening and to provide intra-plate normalization reference points, DMSO negative controls and known mitochondrial inhibitor positive controls were included on each Master compound plate.
as §3
To assess the effects of a compound on ROS production from the flavin binding site of complex I (IF), Start Solution containing 5 mM glutamate, 5 mM malate and 4 μM rotenone was distributed into standard 96-well transfer plates. A Biomek FX workstation was programmed to dispense solutions into black 96-well assay plates. Solutions were dispensed to all assay plates in the following order: ROS Detection solution described in Example 3, Mitochondria solution described in Example 1 to a final concentration of 0.3 mg/ml, and Compound dilutions described in Example 2. Duplicate assay plates were made and each was initiated by the addition of 3.3X Start solution containing 5 mM glutamate, 5 mM malate and 4 μM rotenone. Plates were incubated in the dark at room temperature for 30-40 minutes before acquiring endpoint fluorescence using a Victor 3V plate reader (Perkin Elmer) equipped with 550/590 nm excitation/emission filters.
The fluorescence values in each well were scaled as the percent change from the intra-plate DMSO controls with the appropriate inhibitor positive controls defined as −100%. Following initial scaling, intra-plate normalized values were subjected to Tukey's two-way median polish to remove row and column dependent positional effects (Malo, N. et al. (2006) Statistical practice in high-throughput screening data analysis. Nat. Biotechnol. 24(2): 167-75).

[6] = biological target: T4, glycerol-3-phosphate dehydrogenase (GPDH) (Rattus norvegicus, UniProt P35571); experiment: High-throughput screen: ROS production from glycerol-3-phosphate dehydrogenase (GPDH); type: biochemical; design: inhibition: dose or concentration left out as unconfirmed; settings: for inhibition / GPDH: percent change in ROS from DMSO controls; for inhibition at 2.5 µM: Table 6, 25 mM glycerol phosphate, rotenone, antimycin A, malonate, myxothiazol, compounds 2.5 μM, scaled to IQ positive controls, read-out: % Reduction in ROS Production (GPDH)
T4 construct: The activity of GPDH in intact mitochondria (0.3 mg/mL) was measured; from tissue; host or cells: rat skeletal muscle mitochondria (Wistar, Harlan Laboratories)
T4 sequence (P35571 43-727): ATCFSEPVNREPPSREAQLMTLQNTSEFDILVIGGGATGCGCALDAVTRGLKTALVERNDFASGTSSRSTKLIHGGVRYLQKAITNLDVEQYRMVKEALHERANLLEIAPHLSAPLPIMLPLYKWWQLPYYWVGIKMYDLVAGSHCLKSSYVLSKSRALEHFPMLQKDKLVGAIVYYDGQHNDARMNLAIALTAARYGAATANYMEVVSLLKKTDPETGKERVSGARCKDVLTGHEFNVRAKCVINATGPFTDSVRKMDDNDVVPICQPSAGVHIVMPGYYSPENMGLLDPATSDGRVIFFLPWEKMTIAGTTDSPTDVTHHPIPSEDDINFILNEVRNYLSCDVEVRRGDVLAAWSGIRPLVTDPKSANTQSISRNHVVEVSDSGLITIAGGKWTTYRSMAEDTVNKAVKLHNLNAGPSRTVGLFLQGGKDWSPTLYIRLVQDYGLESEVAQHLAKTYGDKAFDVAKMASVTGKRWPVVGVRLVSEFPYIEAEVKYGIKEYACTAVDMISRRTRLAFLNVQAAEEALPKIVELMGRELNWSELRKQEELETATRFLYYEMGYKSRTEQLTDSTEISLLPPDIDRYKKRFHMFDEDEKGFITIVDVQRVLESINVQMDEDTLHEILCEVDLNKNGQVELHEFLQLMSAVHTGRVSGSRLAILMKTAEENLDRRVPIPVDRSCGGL
Protocol: as §1, §2, §3
To assess the effects of a compound on ROS production from glycerol-3-phosphate dehydrogenase (GPDH), Start Solution containing 25 mM glycerol phosphate, 4 μM rotenone, 2.5 μM antimycin A, 1 mM malonate, 2 μM myxothiazol was distributed into standard 96-well transfer plates. A Biomek FX workstation was programmed to dispense solutions into black 96-well assay plates. Solutions were dispensed to all assay plates in the following order: ROS Detection solution described in Example 3, Mitochondria solution described in Example 1 to a final concentration of 0.2 mg/ml, and Compound dilutions described in Example 2. Duplicate assay plates were made and each was initiated by the addition of 3.3X Start solution containing 25 mM glycerol phosphate, 4 μM rotenone, 2.5 μM antimycin A, 1 mM malonate, 2 μM myxothiazol. Plates were incubated in the dark at room temperature for 30-40 minutes before acquiring endpoint fluorescence using a Victor 3V plate reader (Perkin Elmer) equipped with 550/590 nm excitation/emission filters.
The fluorescence values in each well were scaled as the percent change from the intra-plate DMSO controls. […] Following initial scaling, intra-plate normalized values were subjected to Tukey's two-way median polish to remove row and column dependent positional effects (Malo et al., 2006).

[7] = Table 7, percent change in ROS from DMSO controls, read-out: IIIQO
[8] = Table 8, percent change in ROS from DMSO controls
[9] = Table 9, percent change in ROS from DMSO controls, read-out: IIIQo
[10] = Table 7, percent change in ROS from DMSO controls, read-out: IF
[11] = Table 9, percent change in ROS from DMSO controls
[12] = Table 7, percent change in ROS from DMSO controls
[13] = Table 8, percent change in ROS from DMSO controls, read-out: IIIQO
[14] = Table 3, 5 mM glutamate, 5 mM malate, 4 μM rotenone, compounds 2.5 μM, percent change from DMSO, positive control −100%, read-out: % Reduction in ROS production (IF)
[15] = Table 8, percent change in ROS from DMSO controls, read-out: IF
[16] = Table 4, 5 mM succinate, 4 μM rotenone, 2.5 μM antimycin A, compounds 2.5 μM, percent change from DMSO, read-out: % Reduction in ROS production (IIIQO)

T3 sequence (Q5XIH3 21-464 limits assumed, one chain of several): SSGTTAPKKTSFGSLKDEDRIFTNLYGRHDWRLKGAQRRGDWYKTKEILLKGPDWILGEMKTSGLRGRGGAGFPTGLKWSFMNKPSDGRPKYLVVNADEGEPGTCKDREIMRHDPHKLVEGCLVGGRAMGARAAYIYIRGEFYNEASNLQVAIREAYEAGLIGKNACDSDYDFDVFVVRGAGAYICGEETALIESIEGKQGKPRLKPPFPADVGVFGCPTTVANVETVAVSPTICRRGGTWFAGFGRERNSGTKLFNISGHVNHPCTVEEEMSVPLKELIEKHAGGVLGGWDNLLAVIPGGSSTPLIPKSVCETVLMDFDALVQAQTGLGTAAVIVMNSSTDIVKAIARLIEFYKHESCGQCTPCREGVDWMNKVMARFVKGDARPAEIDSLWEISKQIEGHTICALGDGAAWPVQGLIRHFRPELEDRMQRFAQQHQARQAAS
T2 sequence (Q920L2 35-656): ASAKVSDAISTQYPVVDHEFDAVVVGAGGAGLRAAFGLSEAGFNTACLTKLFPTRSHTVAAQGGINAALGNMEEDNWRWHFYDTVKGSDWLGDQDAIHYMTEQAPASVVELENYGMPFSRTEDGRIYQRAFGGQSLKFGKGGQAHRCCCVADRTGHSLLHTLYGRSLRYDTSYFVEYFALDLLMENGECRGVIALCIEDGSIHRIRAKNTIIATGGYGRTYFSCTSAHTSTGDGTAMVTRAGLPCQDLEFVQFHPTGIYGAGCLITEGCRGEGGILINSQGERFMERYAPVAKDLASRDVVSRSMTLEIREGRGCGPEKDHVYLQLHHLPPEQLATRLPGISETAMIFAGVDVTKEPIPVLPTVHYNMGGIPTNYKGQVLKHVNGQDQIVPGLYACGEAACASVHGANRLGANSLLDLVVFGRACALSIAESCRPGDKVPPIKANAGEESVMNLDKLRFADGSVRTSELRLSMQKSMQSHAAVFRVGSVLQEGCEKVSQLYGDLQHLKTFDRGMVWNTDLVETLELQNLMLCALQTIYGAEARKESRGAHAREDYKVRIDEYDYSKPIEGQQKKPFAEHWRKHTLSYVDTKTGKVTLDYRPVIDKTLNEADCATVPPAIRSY
T2 sequence (P21913 31-282): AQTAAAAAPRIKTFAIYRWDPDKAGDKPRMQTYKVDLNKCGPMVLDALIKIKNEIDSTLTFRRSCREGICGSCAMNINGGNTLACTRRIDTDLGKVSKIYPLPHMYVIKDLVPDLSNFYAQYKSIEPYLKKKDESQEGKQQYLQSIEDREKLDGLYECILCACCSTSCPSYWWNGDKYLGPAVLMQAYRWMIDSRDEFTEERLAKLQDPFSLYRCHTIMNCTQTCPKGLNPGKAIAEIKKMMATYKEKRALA
T2 sequence (Q641Z9 30-169 limits assumed): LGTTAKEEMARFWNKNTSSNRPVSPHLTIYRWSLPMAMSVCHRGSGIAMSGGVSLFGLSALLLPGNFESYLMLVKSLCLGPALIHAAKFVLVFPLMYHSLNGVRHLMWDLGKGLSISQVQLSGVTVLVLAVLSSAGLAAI
T2 sequence (Q6PCT8 57-159): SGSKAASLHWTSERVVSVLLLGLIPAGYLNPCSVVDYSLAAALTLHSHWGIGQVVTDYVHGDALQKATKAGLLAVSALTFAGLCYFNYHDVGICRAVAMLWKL

SMILES	IIIQO [2, 8]	SDH ([3]; Table 8)	SDH ([3]; Table 9)	GPDH ([6]; Table 8)	GPDH ([6]; Table 9)	% Reduction in ROS Production (SDH) [3] [%]	inhibition at 2.5 µM [2, 13] [%]	inhibition at 2.5 µM ([3]; Table 8) [%]	inhibition ([6]; Table 8) [%]	ΔΨm ([1]; Table 8, glutamate)	ΔΨm ([1]; Table 9, glutamate)	IQ ([4]; Table 7)	IQ ([4]; Table 8)	IQ ([4]; Table 9)	IF [5, 8]	IF [5, 11]	% Reduction in ROS production (IQ) [4] [%]	inhibition at 2.5 µM [5, 15] [%]	further results
Cl.OC12CCCCC1C(c1cccc(Cl)c1)NCC2 (stereo not shown) [Compound 51]	−9.8	−1.8	−1.8	−12.0	−12.0					0.9	0.9	−2.8	−2.8	−2.8	5.5	5.5			inhibition at 2.5 µM [2, 7]: 9.8%; inhibition at 2.5 µM [2, 9]: 9.8%; inhibition at 2.5 µM ([3]; Table 7): 1.8%; inhibition at 2.5 µM [5, 10]: -5.5%; inhibition ([6]; Table 7): 12%
COc1ccc(C2C(C#N)=C(N)Oc3c2c(=O)oc2ccccc32)cc1O (stereo not shown) [Compound 74]	−7.6	−20.9	−20.9	−3.5	−3.5	−20.9				0.8	0.8	−0.7	−0.7	−0.7	0.4	0.4			inhibition at 2.5 µM [2, 7]: 7.6%; inhibition at 2.5 µM [2, 9]: 7.6%; inhibition at 2.5 µM ([3]; Table 7): 20.9%; inhibition at 2.5 µM [5, 10]: -0.4%; inhibition ([6]; Table 7): 3.5%
O=C(Nc1nn[nH]n1)C1CCCCC1 [Compound 76]							0	-3	0	0			−24				−24	34	inhibition at 2.5 µM [5, 14]: 34%
CCC1CCCCN1C/C=C/c1ccc(N(C)C)cc1 (stereo not shown) [Compound 80]							12	-4	11	0			0					23	inhibition at 2.5 µM [2, 16]: 12%; inhibition at 2.5 µM [5, 14]: 23%; inhibition at 2.5 µM [6]: 11%
CN(C)c1ccc(C(=C2CN3CCC2CC3)c2ccc(N(C)C)cc2)cc1 [Compound 81]							0	1	13	−1			2					49	
O=[N+]([O-])c1ccc(Oc2ccc(S(=O)(=O)Nc3ccc4c(c3)OCCO4)cc2)cc1 [Compound 85]	−0.8	3.6	3.6	−3.3	−3.3					−0.9	−0.9	−50.6	−50.6	−50.6	0.5	0.5	−50.6		IIIQO [2, 12]: −0.8; IIIQO [2, 11]: −0.8; SDH ([3]; Table 7): 3.6; IF [5, 12]: 0.5; GPDH ([6]; Table 7): −3.3

The next lines start with results.

IIIQO [2, 8]	SDH ([3]; Table 8)	SDH ([3]; Table 9)	GPDH ([6]; Table 8)	GPDH ([6]; Table 9)	% Reduction in ROS Production (SDH) [3] [%]	inhibition at 2.5 µM [2, 13] [%]	inhibition at 2.5 µM ([3]; Table 8) [%]	inhibition ([6]; Table 8) [%]	SMILES	ΔΨm ([1]; Table 8, glutamate)	ΔΨm ([1]; Table 9, glutamate)	IQ ([4]; Table 7)	IQ ([4]; Table 8)	IQ ([4]; Table 9)	IF [5, 8]	IF [5, 11]	% Reduction in ROS production (IQ) [4] [%]	inhibition at 2.5 µM [5, 15] [%]	further results
5.4	−27.4	−27.4	1.7	1.7	−27.4				Oc1nnc(Cc2ccncc2)c2ccccc12 [Compound 72]	1.0	1.0	0.4	0.4	0.4	2.6	2.6			inhibition at 2.5 µM [2, 7]: -5.4%; inhibition at 2.5 µM [2, 9]: -5.4%; inhibition at 2.5 µM ([3]; Table 7): 27.4%; inhibition at 2.5 µM [5, 10]: -2.6%; inhibition ([6]; Table 7): -1.7%
−1.3	−26.9	−26.9	−2.4	−2.4	−26.9				O=C(Nc1ccccc1[N+](=O)[O-])c1cccc(S(=O)(=O)Nc2ccccc2)c1 [Compound 73]	−0.2	−0.2	−4.6	−4.6	−4.6	−0.7	−0.7			IIIQO [2, 12]: −1.3; IIIQO [2, 11]: −1.3; SDH ([3]; Table 7): −26.9; IF [5, 12]: −0.7; GPDH ([6]; Table 7): −2.4
					−22	-3	22	16	COc1ccc(NC(=S)NC(=O)c2ccco2)cc1 [Compound 75]	−2			−50				−50	83	inhibition at 2.5 µM [5, 14]: 83%; inhibition at 2.5 µM [6]: 16%
						15	0	-1	c1ccc(C2CCC(Nc3ccc4c(c3)OCO4)CC2)cc1 (stereo not shown) [Compound 77]	1			−18				−18	6	inhibition at 2.5 µM [2, 16]: 15%
						30	5	6	Clc1ccc(C(NC2CCN(Cc3ccccc3)CC2)c2ccccc2)cc1 (stereo not shown) [Compound 78]	−1			2					37	inhibition at 2.5 µM [2, 16]: 30%; inhibition at 2.5 µM [5, 14]: 37%
−10	−35		0		−35				Cc1cc(OCC(O)CN(Cc2ccccc2)C(C)(C)C)ccc1[N+](=O)[O-] (stereo not shown) [Compound 82]	0			−2		−34				% Reduction in ROS production (IF) ([5]; Table 3, 5 mM glutamate, 5 mM malate, 4 μM rotenone, compounds 2.5 μM, percent change from DMSO, positive control −100%): −34%
					−14	29	14	3	Clc1ccc(N2CCN(CC(c3ccccc3)c3ccccc3)CC2)cc1 [Compound 83]	1			2					1	inhibition at 2.5 µM [2, 16]: 29%
0.8	0.7	0.7	−0.2	−0.2					O=[N+]([O-])c1ccc(Oc2ccc(S(=O)(=O)Nc3ccc(F)cc3)cc2)cc1 [Compound 84]	−1.5	−1.5	−47.7	−47.7	−47.7	−1.4	−1.4	−47.7		IIIQO [2, 12]: 0.8; IIIQO [2, 11]: 0.8; SDH ([3]; Table 7): 0.7; IF [5, 12]: −1.4; GPDH ([6]; Table 7): −0.2
